Data reported in ChEMBL document CHEMBL1145498, “A systematic interaction map of validated kinase inhibitors with Ser/Thr kinases” (Proc Natl Acad Sci U S A, 2007).

How the values were obtained:
[1] = molecular target: Calcium/calmodulin-dependent protein kinase type 1G (Homo sapiens) (UniProt Q96NX5)
[2] = molecular target: T1, Calcium/calmodulin-dependent protein kinase type IV (Homo sapiens) (UniProt Q16566)
T1 sequence (whole entry): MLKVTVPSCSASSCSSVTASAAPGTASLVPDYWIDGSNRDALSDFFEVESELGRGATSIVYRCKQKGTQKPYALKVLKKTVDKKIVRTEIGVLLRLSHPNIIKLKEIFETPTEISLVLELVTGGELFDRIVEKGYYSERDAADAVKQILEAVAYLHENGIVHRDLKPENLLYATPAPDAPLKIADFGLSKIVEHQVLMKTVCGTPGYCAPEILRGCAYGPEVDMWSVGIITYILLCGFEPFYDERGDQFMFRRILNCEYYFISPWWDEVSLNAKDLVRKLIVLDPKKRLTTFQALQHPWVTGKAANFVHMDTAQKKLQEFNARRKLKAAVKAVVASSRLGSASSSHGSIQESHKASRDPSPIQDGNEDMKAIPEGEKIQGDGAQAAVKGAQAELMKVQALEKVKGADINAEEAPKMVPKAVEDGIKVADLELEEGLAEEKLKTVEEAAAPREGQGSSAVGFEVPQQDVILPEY

[3] = molecular target: Cyclin-dependent kinase-like 1 (Homo sapiens) (UniProt Q00532)
[4] = molecular target: Dual specificity protein kinase CLK1 (Homo sapiens) (UniProt P49759)
[5] = molecular target: Casein kinase I isoform gamma-3 (Homo sapiens) (UniProt Q9Y6M4)
[6] = molecular target: T2, Myotonin-protein kinase (Homo sapiens) (UniProt Q09013)
T2 sequence (whole entry): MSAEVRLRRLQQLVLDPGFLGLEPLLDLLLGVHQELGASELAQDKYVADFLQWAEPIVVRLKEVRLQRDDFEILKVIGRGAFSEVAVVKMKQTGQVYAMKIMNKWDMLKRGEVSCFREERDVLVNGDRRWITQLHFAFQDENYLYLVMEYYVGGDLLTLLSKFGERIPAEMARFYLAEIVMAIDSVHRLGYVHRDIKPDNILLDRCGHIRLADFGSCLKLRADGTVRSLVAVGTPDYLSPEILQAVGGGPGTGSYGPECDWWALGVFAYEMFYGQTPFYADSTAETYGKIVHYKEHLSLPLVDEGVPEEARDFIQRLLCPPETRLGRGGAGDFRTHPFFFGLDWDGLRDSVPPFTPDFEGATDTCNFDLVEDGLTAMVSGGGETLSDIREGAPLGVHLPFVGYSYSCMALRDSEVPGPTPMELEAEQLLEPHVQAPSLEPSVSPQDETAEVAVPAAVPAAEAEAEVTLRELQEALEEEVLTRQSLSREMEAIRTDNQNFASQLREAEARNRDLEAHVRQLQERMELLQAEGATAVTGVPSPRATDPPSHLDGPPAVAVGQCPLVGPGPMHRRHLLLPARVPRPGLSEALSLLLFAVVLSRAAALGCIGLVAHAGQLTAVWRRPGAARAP

[7] = molecular target: Tyrosine-protein kinase JAK1 (Homo sapiens) (UniProt P23458)
[8] = molecular target: Serine/threonine-protein kinase OSR1 (Homo sapiens) (UniProt O95747)
[9] = molecular target: Serine/threonine-protein kinase PAK 4 (Homo sapiens) (UniProt O96013)
[10] = molecular target: Serine/threonine-protein kinase PAK 5 (Homo sapiens) (UniProt Q9P286)
[11] = molecular target: T3, 3-phosphoinositide-dependent protein kinase 1 (Homo sapiens) (UniProt O15530)
T3 sequence (whole entry): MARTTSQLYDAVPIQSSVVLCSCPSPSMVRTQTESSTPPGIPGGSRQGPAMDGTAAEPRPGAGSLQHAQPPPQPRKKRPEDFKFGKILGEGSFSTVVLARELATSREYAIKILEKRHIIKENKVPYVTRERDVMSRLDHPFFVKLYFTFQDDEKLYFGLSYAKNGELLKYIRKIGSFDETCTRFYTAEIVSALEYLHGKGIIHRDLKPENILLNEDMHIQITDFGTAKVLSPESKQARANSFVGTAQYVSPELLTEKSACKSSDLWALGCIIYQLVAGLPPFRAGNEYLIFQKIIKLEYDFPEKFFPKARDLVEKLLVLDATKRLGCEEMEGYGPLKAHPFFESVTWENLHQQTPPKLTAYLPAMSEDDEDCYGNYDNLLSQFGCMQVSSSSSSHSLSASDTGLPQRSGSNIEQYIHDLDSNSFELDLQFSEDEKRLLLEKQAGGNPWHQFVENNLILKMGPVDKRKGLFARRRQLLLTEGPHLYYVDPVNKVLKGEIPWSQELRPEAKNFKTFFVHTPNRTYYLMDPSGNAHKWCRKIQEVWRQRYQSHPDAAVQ

[12] = molecular target: Serine/threonine-protein kinase pim-1 (Homo sapiens) (UniProt P11309)
[13] = molecular target: Ribosomal protein S6 kinase alpha-3 (Homo sapiens) (UniProt P51812)
[14] = molecular target: T4, Serine/threonine-protein kinase 4 (Homo sapiens) (UniProt Q13043)
T4 sequence (whole entry): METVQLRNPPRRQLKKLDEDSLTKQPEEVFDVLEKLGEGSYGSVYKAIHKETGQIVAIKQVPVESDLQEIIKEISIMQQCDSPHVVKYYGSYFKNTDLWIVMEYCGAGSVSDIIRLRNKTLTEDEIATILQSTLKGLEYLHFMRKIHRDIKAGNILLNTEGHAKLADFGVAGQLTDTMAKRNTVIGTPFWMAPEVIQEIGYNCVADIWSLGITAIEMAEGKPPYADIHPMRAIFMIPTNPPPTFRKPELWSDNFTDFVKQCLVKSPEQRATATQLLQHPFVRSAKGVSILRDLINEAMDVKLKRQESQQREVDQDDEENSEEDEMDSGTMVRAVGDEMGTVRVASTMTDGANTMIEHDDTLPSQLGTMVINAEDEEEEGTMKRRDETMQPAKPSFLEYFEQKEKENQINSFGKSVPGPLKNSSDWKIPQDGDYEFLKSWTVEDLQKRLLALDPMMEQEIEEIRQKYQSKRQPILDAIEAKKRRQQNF

Dual specificity protein kinase CLK1 (Homo sapiens), sequence (P49759 whole entry, looked up, canonical isoform): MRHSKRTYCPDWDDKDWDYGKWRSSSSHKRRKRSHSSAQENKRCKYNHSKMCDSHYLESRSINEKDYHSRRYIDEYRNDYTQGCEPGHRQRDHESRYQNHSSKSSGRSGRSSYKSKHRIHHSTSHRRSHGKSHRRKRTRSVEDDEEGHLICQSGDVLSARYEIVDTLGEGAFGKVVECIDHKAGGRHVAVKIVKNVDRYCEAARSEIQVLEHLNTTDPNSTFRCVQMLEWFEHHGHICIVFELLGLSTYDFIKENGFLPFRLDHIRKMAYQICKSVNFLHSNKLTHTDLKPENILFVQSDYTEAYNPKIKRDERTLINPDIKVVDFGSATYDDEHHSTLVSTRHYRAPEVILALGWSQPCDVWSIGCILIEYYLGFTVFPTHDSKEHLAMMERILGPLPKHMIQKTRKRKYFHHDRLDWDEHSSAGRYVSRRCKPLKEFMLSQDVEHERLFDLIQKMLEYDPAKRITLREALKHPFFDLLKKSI
Serine/threonine-protein kinase PAK 5 (Homo sapiens), sequence (Q9P286 whole entry, looked up): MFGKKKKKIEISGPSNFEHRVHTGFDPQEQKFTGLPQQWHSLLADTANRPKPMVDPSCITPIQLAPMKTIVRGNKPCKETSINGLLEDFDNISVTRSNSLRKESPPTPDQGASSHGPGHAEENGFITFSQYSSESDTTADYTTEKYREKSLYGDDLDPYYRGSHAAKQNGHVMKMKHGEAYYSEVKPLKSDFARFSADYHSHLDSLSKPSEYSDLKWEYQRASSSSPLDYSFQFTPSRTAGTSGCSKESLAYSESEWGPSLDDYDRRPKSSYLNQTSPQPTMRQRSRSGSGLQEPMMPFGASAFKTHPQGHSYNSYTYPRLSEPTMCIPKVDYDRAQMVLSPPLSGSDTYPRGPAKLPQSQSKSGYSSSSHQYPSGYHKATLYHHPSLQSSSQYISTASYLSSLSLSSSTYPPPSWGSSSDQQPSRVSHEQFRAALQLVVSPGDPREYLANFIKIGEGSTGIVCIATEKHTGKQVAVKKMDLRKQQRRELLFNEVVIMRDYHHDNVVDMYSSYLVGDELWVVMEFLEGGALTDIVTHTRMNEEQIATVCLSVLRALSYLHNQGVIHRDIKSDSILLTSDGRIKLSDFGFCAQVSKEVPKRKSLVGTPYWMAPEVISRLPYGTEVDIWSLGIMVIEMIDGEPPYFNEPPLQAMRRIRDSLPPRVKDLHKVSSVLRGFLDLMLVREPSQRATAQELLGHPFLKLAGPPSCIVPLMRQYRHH
Casein kinase I isoform gamma-3 (Homo sapiens), sequence (Q9Y6M4 whole entry, looked up, canonical isoform): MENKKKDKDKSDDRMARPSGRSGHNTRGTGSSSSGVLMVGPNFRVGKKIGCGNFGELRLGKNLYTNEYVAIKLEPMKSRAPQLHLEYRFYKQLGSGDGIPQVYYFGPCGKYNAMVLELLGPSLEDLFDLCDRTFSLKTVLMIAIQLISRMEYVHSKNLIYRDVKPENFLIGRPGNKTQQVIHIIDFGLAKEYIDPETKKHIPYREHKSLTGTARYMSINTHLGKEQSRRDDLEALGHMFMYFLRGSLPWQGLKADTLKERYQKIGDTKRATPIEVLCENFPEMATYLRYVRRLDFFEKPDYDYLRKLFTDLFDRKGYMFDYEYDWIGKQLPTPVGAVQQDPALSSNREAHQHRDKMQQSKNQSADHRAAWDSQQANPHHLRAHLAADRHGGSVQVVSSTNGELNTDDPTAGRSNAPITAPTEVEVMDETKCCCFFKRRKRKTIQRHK
Ribosomal protein S6 kinase alpha-3 (Homo sapiens), sequence (P51812 whole entry): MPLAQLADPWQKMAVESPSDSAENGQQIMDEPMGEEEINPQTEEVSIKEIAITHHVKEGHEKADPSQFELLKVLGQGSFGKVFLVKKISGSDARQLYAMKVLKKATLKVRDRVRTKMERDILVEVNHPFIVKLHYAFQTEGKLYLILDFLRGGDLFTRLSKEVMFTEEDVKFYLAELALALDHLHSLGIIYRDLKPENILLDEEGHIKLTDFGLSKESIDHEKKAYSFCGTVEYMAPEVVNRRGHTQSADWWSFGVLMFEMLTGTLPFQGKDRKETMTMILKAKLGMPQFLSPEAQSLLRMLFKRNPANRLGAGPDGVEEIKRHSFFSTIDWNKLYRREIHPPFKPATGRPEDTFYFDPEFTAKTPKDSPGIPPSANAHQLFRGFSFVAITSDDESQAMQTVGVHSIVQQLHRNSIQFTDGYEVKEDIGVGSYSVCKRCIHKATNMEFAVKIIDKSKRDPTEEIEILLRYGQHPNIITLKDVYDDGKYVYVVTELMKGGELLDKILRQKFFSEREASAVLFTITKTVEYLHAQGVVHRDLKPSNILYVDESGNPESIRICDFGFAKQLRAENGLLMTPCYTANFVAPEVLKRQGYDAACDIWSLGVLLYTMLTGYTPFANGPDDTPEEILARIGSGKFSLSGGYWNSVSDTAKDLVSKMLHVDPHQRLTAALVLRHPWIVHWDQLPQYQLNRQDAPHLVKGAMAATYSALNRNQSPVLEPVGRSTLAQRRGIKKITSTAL
Serine/threonine-protein kinase pim-1 (Homo sapiens), sequence (P11309 whole entry, looked up): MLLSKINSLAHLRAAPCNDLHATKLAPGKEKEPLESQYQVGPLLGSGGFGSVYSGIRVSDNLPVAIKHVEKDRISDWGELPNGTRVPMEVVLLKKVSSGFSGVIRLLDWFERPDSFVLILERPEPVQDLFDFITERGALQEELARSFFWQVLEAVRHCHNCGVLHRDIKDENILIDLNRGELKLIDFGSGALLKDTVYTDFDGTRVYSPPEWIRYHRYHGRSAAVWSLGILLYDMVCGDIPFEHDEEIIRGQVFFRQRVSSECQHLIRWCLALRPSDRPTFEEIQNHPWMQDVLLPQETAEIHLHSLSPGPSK
Cyclin-dependent kinase-like 1 (Homo sapiens), sequence (Q00532 whole entry): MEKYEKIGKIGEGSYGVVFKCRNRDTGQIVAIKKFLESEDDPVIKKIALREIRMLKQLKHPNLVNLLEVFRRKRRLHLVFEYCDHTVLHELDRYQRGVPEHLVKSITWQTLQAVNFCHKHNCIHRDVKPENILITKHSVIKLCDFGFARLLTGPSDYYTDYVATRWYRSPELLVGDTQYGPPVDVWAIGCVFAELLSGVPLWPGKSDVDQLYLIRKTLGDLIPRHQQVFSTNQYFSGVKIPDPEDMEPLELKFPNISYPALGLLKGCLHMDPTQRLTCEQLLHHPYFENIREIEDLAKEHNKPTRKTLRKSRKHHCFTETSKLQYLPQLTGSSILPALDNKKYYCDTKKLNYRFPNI
Calcium/calmodulin-dependent protein kinase type 1G (Homo sapiens), sequence (Q96NX5 whole entry): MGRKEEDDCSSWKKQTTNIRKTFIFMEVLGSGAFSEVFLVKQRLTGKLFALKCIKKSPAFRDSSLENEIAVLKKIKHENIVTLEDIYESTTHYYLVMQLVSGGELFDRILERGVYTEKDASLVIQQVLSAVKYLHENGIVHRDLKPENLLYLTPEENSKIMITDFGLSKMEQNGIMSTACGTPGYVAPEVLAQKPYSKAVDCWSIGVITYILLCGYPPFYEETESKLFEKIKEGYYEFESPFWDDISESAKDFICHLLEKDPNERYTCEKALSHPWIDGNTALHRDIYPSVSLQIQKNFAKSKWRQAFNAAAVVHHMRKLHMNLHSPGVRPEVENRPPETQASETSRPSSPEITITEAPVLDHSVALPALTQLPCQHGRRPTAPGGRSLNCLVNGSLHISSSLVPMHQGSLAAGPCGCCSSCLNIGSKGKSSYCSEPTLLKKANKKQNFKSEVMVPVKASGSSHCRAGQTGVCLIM
Tyrosine-protein kinase JAK1 (Homo sapiens), sequence (P23458 whole entry): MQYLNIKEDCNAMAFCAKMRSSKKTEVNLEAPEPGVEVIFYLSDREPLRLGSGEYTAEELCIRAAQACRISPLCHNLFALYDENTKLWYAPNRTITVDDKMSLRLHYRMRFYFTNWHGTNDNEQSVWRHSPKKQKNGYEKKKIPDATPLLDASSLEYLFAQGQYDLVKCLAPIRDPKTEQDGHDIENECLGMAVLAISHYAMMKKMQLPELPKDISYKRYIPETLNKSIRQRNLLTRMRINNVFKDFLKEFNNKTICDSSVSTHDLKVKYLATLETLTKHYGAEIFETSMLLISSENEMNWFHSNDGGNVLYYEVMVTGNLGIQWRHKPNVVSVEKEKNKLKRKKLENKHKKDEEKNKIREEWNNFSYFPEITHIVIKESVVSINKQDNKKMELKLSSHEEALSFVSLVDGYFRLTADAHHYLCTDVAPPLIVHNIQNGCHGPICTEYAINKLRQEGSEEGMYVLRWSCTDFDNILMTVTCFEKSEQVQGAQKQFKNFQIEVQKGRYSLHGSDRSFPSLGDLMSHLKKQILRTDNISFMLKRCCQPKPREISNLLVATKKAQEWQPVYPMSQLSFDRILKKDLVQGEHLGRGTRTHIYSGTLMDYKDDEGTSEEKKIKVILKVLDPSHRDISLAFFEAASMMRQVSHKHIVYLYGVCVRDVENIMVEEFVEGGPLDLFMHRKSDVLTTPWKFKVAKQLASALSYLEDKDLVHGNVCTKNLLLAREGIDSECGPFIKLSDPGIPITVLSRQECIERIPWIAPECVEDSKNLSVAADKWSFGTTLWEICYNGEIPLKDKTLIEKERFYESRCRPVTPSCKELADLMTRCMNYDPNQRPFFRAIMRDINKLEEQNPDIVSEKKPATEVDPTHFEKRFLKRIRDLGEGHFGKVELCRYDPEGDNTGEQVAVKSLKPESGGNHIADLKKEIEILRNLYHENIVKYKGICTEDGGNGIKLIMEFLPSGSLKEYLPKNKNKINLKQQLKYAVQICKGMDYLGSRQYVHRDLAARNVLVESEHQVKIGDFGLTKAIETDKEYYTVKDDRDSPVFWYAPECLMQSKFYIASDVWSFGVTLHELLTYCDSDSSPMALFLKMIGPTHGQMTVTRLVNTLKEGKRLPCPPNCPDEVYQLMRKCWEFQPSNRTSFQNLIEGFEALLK

Compound	ΔTm [1]	ΔTm [2]	ΔTm [3]	ΔTm [4]	ΔTm [5]	ΔTm [6]	ΔTm [7]	ΔTm [8]	ΔTm [9]	ΔTm [10]	ΔTm [11]	ΔTm [12]	ΔTm [13]	ΔTm [14]
O=C1c2ccccc2-c2n[nH]c3cccc1c23	2 °C	1.5 °C	0.7 °C	4.7 °C	2 °C	0.3 °C	5.5 °C	3.2 °C	1.5 °C	1.1 °C	-0.1 °C	3.6 °C	3.5 °C	4.3 °C
NC1=NC(=O)/C(=C2\CCNC(=O)c3[nH]c(Br)cc32)N1 [HYMENIALDISINE]	-0.2 °C	0.1 °C	0.6 °C	9.2 °C	3.5 °C	2.1 °C	0.2 °C	0.5 °C	1.6 °C	0.4 °C	-0.2 °C	0.7 °C	4.2 °C	5.2 °C
O=C1Nc2cc(Br)ccc2/C1=C1/Nc2ccccc2/C1=N\O	-0.8 °C	-0.5 °C	1.5 °C	0 °C	-1.1 °C	0.3 °C	7.1 °C	0.6 °C	1.8 °C	4.6 °C	-0.6 °C	0.1 °C	0.8 °C	4.4 °C
O=C1Nc2ccccc2/C1=C1/Nc2ccccc2/C1=N\O	3.1 °C	5.5 °C	6.1 °C	7.7 °C	2.7 °C	2.8 °C	13.1 °C	3.1 °C	3.4 °C	3.3 °C	0.8 °C	4.5 °C	7.5 °C	8.4 °C
O=C(O)Cc1ccc(O)c([N+](=O)[O-])c1	0.6 °C	3.3 °C	1.2 °C	-0.6 °C	0.5 °C	1.6 °C	-0.3 °C	0 °C	1.2 °C	0.1 °C	-0.6 °C	0.2 °C	-0.1 °C	0.4 °C
COc1ccc(COc2ccc(Cc3cnc(N)nc3N)cc2OC)cc1	-0.2 °C	0 °C	-0.2 °C	-1.5 °C	0.5 °C	0.1 °C	0.3 °C	0.3 °C	-0.1 °C	-0.2 °C	-0.9 °C	0 °C	-0.3 °C	0.2 °C
Cc1cncc2cccc(S(=O)(=O)N3CCCNC[C@@H]3C)c12	-0.1 °C	0.3 °C	0.1 °C	3 °C	0.2 °C	0.4 °C	-0.1 °C	0.6 °C	0.7 °C	0.5 °C	-0.2 °C	0.7 °C	2.4 °C	3.3 °C
O=C(O)c1cc(NCc2cc(O)ccc2O)ccc1O	-0.1 °C	0.1 °C	-0.4 °C	0.1 °C	0.3 °C	0.3 °C	-0.2 °C	0 °C	0 °C	-0.3 °C	0.2 °C	0 °C	-1 °C	-0.6 °C
Nc1nc(Nc2ccc(S(N)(=O)=O)cc2)nn1C(=S)Nc1c(F)cccc1F	2 °C	-0.2 °C	4.3 °C	11.5 °C	5.3 °C	7 °C	10.4 °C	5.6 °C	6.3 °C	5.5 °C	0.4 °C	0.4 °C	9.6 °C	12.9 °C
CC(C)N(CCO)c1nc(Nc2cccc(Cl)c2)c2ncn(C(C)C)c2n1	-0.1 °C	2.2 °C	0.3 °C	5.9 °C	6.7 °C	0.2 °C	2.2 °C	1.3 °C	4.7 °C	3 °C	-0.8 °C	-1.1 °C	6 °C	4.2 °C
Nc1nccc(-c2c(-c3ccc(F)cc3)ncn2C2CCNCC2)n1	0.3 °C	0.2 °C	0.4 °C	1.3 °C	2.4 °C	0.6 °C	0.7 °C	0.3 °C	1 °C	0 °C	-0.2 °C	-0.1 °C	0.8 °C	2.6 °C
Cc1cc2ncc(-c3ccccc3)nc2cc1C	0.7 °C	0.4 °C	-0.3 °C	1.4 °C	1.1 °C	1.2 °C	1.3 °C	0.5 °C	1.1 °C	0.8 °C	-0.1 °C	0.2 °C	0.2 °C	2.2 °C
O=C(O)/C=C/c1cc(CO)ccc1CO	0 °C	0.5 °C	-0.1 °C	0.2 °C	0.4 °C	-0.1 °C	0.8 °C	0.5 °C	0.1 °C	-4.4 °C	0 °C	0.6 °C	0.3 °C	0 °C
O=c1sn(Cc2ccccc2)c(=S)n1Cc1ccccc1	-0.1 °C	0.9 °C	-0.3 °C	0.2 °C	0.4 °C	0.5 °C	2.3 °C	0.1 °C	1.2 °C	0.5 °C	0 °C	-0.2 °C	0 °C	0.9 °C
NC(=O)c1ccc(-c2nc(-c3ccc4c(c3)OCCO4)c(-c3ccccn3)[nH]2)cc1	1 °C	-0.9 °C	-0.3 °C	-0.4 °C	0.8 °C	0.8 °C	1.3 °C	-0.1 °C	0.9 °C	0.4 °C	-0.1 °C	-0.5 °C	-0.1 °C	1.1 °C
